The values that follow come from article PMC9851200, “Multiparameter phenotypic screening for endogenous TFEB and TFE3 translocation identifies novel chemical series modulating lysosome function” (Autophagy, 2022).

pKd: −log10 of the molar value.

A word on the inhibition: it is the relative decrease from the control value, in per cent. Read a high inhibition as a strong effect. As usually defined, the pKd is −log10 of the Kd, conventionally taken in molar units. Higher therefore signals a small Kd.

Experiment [1] addresses T1, PRKD2 (Homo sapiens, UniProt Q9BZL6).
T1 sequence (Q9BZL6 1-878): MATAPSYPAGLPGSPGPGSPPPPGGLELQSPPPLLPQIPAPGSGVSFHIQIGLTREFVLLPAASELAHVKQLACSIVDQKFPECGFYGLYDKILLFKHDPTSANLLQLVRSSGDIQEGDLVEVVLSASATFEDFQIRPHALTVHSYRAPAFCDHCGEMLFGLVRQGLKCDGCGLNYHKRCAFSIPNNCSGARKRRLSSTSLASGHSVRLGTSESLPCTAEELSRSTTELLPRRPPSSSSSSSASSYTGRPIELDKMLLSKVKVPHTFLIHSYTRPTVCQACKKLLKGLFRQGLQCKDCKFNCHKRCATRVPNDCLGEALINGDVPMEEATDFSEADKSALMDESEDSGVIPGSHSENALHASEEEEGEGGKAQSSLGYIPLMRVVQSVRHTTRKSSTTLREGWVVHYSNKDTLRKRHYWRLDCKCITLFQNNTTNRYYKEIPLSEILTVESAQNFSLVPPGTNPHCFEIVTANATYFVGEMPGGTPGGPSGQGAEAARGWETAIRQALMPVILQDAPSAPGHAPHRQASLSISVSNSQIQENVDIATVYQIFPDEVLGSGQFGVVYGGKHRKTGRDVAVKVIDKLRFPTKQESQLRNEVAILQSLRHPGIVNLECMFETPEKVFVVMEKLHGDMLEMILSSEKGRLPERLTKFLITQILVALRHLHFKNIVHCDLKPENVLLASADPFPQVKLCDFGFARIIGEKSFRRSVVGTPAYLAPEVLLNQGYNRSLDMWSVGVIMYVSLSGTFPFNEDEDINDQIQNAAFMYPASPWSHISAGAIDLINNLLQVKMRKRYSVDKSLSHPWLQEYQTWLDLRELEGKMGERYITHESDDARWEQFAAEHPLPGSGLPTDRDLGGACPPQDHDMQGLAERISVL
Description: KiNativ in-cell kinase binding, PRKD2. Set-up: endogenous in cells; host or cells: SH-SY5Y. The text has this:
As KINOMEscan is an in vitro assay, and as different cell types have variable kinase expression profiles we sought to determine the kinase binding profile in our SH-SY5Y TFEB-relocalization cell model. […] Bound kinases were pulled down and analyzed by mass spectrometry to determine the in situ kinase binding profile for each compound.

Experiment [2] deals with T2, PRKD1 (Homo sapiens, UniProt Q15139).
T2 sequence (Q15139 1-912): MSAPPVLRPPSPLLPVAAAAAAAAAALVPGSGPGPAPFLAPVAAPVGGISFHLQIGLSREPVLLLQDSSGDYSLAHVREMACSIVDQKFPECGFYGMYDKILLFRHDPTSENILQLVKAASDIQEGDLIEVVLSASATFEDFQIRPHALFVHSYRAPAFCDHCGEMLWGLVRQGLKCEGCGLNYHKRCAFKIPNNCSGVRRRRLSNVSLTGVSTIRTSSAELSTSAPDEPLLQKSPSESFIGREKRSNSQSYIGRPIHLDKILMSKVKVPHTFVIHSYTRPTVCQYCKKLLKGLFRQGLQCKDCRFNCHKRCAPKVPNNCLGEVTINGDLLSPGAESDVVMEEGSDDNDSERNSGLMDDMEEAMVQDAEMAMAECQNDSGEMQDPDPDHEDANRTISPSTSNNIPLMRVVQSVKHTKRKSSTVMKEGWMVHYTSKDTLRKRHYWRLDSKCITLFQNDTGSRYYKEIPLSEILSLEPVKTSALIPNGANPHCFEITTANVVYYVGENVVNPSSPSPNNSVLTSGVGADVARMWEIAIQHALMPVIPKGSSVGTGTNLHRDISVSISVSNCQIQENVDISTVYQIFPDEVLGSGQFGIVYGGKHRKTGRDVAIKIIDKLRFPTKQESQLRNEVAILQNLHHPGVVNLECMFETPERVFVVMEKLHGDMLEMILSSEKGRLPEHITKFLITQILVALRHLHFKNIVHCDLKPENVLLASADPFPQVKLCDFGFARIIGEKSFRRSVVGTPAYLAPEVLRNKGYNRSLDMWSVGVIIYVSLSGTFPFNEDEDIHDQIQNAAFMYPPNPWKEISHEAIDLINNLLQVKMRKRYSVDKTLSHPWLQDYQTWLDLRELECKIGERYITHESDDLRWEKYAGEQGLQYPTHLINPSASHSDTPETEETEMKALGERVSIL
Description: PRKD1 binding KD (Table S3). As to conditions: relation sign. The source says: Supplement KAUP_A_2095834_SM5251.zip/Supplementary Tables R7.xlsx, sheet "Table S3 - Analogues"

Experiment [3] deals with kinases (KINOMEscan panel) (Homo sapiens, UniProt P36507). Format: binding.
Experiment [4] deals with kinases (KINOMEscan panel) (Homo sapiens, UniProt Q13163). The experiment is classed as binding.
Experiment [5] deals with kinases (KINOMEscan panel) (Homo sapiens, UniProt Q15208). The experiment is classed as binding.
Experiment [6] deals with kinases (KINOMEscan panel) (Homo sapiens, UniProt Q86UX6). The experiment is classed as binding.
Chain of kinases (KINOMEscan panel) (Homo sapiens, UniProt Q86UX6) (Q86UX6 whole entry): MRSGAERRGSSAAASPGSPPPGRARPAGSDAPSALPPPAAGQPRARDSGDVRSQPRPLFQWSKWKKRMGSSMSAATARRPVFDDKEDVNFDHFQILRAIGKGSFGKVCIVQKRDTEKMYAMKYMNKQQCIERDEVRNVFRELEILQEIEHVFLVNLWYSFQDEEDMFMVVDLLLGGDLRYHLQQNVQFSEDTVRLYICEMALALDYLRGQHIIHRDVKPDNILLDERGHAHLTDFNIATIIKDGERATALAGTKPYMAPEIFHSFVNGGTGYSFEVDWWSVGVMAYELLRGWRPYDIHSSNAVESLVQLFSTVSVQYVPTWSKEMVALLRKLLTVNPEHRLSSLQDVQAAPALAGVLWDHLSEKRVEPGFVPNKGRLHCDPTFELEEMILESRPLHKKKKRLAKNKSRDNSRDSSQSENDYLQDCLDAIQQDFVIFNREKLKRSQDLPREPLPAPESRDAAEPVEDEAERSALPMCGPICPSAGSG
Experiment [7] has as its target kinases (KINOMEscan panel) (Homo sapiens, UniProt Q9NYL2). The experiment is classed as binding.
In experiment [8] the target is kinases (KINOMEscan panel) (Homo sapiens, UniProt O94768). The experiment is classed as binding.
In experiment [9] the target is kinases (KINOMEscan panel) (Homo sapiens, UniProt O95382). Format: binding.
The target in experiment [10] is kinases (KINOMEscan panel) (Homo sapiens, UniProt P04629). The experiment is classed as binding.
Chain of kinases (KINOMEscan panel) (Homo sapiens, UniProt P04629) (P04629 33-796): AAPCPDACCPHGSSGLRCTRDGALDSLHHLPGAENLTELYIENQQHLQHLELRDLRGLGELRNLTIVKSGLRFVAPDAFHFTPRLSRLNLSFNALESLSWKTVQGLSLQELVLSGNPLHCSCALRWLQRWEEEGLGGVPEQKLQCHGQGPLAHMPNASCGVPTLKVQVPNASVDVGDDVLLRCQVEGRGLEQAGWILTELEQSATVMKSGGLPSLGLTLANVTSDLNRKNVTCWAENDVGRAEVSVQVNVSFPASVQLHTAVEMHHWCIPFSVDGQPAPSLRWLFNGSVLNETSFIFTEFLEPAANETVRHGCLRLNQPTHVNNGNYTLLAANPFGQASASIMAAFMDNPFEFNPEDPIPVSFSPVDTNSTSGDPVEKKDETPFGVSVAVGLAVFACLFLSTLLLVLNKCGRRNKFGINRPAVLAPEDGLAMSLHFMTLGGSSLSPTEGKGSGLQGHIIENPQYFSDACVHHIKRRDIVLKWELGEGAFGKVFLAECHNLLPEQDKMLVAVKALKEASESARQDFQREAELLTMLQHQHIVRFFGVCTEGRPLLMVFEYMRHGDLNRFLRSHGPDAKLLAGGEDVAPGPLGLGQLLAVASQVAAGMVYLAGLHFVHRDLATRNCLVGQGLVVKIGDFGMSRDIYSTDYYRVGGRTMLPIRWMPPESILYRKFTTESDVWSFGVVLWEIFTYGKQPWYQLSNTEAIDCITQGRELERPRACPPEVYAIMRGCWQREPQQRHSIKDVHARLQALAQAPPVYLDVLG
The target in experiment [11] is kinases (KINOMEscan panel) (Homo sapiens, UniProt Q13164). The experiment is classed as binding.
The target in experiment [12] is kinases (KINOMEscan panel) (Homo sapiens, UniProt Q9NSY1). Format: binding.
Chain of kinases (KINOMEscan panel) (Homo sapiens, UniProt Q9NSY1) (Q9NSY1 whole entry): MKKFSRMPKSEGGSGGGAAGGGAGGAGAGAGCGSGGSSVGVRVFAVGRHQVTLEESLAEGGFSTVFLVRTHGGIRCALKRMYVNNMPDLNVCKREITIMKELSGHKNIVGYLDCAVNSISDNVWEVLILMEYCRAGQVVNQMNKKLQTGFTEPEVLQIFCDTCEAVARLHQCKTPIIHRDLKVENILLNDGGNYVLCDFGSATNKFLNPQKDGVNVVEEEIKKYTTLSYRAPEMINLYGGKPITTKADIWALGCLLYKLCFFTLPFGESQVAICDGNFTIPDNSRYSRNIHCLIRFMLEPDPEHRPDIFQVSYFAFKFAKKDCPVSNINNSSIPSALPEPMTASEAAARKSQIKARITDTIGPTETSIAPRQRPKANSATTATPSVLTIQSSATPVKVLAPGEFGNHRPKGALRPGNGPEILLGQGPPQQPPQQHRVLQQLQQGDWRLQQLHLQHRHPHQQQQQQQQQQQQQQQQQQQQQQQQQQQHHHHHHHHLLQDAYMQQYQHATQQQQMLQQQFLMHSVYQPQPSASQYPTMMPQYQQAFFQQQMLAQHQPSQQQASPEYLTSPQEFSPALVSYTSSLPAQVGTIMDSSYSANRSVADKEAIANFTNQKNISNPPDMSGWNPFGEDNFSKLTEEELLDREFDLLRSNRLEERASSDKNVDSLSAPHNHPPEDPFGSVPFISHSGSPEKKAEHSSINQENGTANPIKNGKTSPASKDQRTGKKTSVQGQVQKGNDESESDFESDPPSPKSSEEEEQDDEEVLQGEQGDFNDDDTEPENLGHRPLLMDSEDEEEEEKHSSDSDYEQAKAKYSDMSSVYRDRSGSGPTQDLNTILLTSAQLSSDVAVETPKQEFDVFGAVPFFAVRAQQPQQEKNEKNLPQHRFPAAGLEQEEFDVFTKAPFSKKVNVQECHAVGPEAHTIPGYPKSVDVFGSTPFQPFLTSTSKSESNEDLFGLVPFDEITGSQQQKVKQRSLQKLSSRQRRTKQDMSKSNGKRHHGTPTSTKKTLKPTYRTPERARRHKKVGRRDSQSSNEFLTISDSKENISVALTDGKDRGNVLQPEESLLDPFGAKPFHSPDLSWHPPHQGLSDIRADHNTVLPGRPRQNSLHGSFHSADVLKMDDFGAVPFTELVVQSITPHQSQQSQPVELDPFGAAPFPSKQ
Experiment [13] concerns the target kinases (KINOMEscan panel) (Homo sapiens, UniProt Q9Y6E0). Format: binding.
In experiment [14] the target is kinases (KINOMEscan panel) (Homo sapiens, UniProt Q13153). Format: binding.
Chain of kinases (KINOMEscan panel) (Homo sapiens, UniProt Q13153) (Q13153 whole entry): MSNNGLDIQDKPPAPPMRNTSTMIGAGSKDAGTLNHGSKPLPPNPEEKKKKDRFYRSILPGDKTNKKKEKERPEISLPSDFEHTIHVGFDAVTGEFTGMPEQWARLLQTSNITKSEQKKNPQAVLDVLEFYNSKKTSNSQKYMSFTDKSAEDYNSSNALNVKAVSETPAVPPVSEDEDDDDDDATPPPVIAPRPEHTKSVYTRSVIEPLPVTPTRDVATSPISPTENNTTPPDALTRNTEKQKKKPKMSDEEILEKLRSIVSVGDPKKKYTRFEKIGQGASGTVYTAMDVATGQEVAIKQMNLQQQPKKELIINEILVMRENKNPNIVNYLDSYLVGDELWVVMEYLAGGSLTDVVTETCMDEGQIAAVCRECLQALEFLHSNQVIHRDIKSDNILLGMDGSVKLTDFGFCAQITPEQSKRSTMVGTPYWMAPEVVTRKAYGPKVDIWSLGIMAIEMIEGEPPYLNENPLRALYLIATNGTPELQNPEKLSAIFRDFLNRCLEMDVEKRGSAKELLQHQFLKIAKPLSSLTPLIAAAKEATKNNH
In experiment [15] the target is kinases (KINOMEscan panel) (Homo sapiens, UniProt Q02750). Format: binding.
Chain of kinases (KINOMEscan panel) (Homo sapiens, UniProt Q02750) (Q02750 whole entry): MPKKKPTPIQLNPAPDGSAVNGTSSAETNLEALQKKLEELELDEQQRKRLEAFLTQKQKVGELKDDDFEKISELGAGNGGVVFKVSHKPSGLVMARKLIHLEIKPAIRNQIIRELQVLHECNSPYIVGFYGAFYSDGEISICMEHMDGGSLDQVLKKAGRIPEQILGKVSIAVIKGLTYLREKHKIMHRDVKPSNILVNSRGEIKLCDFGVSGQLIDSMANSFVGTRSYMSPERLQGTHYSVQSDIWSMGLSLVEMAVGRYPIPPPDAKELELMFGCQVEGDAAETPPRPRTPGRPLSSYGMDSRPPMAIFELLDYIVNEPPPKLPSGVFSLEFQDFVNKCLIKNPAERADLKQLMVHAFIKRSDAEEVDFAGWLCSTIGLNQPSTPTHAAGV
Experiment [16] has as its target kinases (KINOMEscan panel) (Homo sapiens, UniProt Q9NY57). Format: binding.

Chain of kinases (KINOMEscan panel) (Homo sapiens, UniProt Q9NY57) (Q9NY57 whole entry): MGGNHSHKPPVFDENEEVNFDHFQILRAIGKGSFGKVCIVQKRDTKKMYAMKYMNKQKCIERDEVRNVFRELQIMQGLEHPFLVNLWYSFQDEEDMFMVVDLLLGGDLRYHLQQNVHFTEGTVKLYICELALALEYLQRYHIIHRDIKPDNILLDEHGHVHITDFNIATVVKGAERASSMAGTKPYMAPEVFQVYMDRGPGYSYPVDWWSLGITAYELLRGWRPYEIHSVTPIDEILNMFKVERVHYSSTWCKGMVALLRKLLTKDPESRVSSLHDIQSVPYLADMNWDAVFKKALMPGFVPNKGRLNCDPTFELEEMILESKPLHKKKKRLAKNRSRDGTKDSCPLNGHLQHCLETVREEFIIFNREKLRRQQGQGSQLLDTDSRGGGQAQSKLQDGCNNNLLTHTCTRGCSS
Chain of kinases (KINOMEscan panel) (Homo sapiens, UniProt Q9NYL2) (Q9NYL2 whole entry): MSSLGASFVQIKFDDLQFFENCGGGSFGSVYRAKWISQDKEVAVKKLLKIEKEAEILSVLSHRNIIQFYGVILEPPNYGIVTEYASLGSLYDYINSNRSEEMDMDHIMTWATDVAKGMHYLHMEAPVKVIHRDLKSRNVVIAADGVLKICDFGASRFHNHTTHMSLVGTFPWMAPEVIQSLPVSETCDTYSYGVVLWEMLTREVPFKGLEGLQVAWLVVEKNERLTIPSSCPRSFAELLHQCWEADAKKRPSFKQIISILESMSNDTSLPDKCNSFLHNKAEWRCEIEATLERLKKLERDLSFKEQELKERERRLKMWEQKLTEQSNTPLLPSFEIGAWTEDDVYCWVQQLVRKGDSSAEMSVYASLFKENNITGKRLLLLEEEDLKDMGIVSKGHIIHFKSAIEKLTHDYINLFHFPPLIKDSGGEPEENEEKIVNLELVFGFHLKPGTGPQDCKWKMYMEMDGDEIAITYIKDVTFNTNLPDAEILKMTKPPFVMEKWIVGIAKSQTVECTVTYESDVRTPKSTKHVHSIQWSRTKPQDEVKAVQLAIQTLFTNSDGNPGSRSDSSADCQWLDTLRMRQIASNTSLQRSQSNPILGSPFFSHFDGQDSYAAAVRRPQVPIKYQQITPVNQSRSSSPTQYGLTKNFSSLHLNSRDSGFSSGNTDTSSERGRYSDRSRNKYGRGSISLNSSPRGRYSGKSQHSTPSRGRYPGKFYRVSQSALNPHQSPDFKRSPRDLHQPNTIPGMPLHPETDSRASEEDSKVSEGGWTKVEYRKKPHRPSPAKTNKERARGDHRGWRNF
Chain of kinases (KINOMEscan panel) (Homo sapiens, UniProt Q9Y6E0) (Q9Y6E0 whole entry): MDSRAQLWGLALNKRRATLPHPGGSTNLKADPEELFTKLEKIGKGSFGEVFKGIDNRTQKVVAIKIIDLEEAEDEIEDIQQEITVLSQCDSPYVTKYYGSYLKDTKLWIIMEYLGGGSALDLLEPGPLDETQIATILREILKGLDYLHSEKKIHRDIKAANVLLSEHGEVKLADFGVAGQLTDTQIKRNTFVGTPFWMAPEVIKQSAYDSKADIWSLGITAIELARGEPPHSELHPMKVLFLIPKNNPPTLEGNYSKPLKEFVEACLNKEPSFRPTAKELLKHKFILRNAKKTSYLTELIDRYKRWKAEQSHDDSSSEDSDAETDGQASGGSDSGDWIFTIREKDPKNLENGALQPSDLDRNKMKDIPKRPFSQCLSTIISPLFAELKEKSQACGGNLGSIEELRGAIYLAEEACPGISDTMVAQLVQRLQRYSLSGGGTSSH

Take `Cc1cccc(-c2nc(Nc3ccc4ncsc4c3)c3ccccc3n2)n1` [NK140]: the inhibition at 2 µM in experiment [1] (2µM, SH-SY5Y cells, Labeling Site Lys1, […]) was determined as 51.7%. For the same compound, the “KiNativ binding of PRKD2 (in words)” value in experiment [1] (SH-SY5Y cells treated 2 h) was “bound”.

In turn, `Cc1cccc(-c2nc(Nc3ccncc3)c3ccccc3n2)n1` [NK215] had a pKd in [2] of 7.89.

As for `Cc1cccc(-c2nc(N(C)c3ccc4ncsc4c3)c3ccccc3n2)n1` [NK-161], in experiment [3], the “KINOMEscan MAP2K2/MEK2” value is 27. Moreover, the “KINOMEscan MAP2K5/MEK5” value in experiment [4] is reported as 0. The “KINOMEscan NDR1/STK38” value in experiment [5] came to 42. For the same compound, the “KINOMEscan STK32C/YANK3” value in [6] was determined as 18. In experiment [7], the “KINOMEscan MAP3K20/ZAK” value came out at 0. For the same compound, the “KINOMEscan STK17B/DRAK2” value in experiment [8] is recorded as 4. Besides, the “KINOMEscan MAP3K6/ASK2” value in [9] came out at 0. Besides, the “KINOMEscan NTRK1/TRKA” value in experiment [10] is 22. The “KINOMEscan MAPK7/ERK5” value in [11] is on record as 0. Moreover, in experiment [12], the “KINOMEscan BMP2K/BIKE” value came out at 12. The “KINOMEscan STK24/MST3” value in experiment [13] was determined as 0. Also, the “KINOMEscan PKN1/PAK1” value in experiment [14] came to 0. Also, the “KINOMEscan MAP2K1/MEK1” value in experiment [15] is 32. The “KINOMEscan STK32B/YANK2” value in [16] is 17.
